Results on eight compounds are retold here after patent US20190077802A1, “DIFLUORO-(2-SUBSTITUTED CARBAMOYL-1,6-DIAZA-BICYCLO [3.2.1] OCT-6-YLOXY) ACETIC ACID COMPOUNDS AND THEIR USE IN TREATMENT OF BACTERIAL INFECTIONS” (WOCKHARDT LIMITED, priority 2015, published 2019).

Test in all cases: Agar dilution MIC (CLSI)
In one assay the test system is KP ATCC 700603. It is filed as cell-based, K. pneumoniae. The settings on record: Klebsiella pneumoniae, ATCC700603, Mueller Hinton Agar. On the procedure:
(§1) The biological activity of representative compounds according to the invention against various bacterial strains was investigated. In a typical study, overnight grown bacterial cultures were diluted appropriately and inoculated on the agar media containing doubling dilutions of the test compounds. Observations for growth or no growth was performed after 16-20 hours of incubation at 35±2° C. in the ambient air. The overall procedure was performed as per Clinical and Laboratory Standards Institute (CLSI) recommendations, (Clinical and Laboratory Standards Institute (CLSI), Performance Standards for Antimicrobial Susceptibility Testing, 20th Informational Supplement, M07-A9, Volume 32, No. 2, 2012). Molten Mueller Hinton Agar (MHA) (BD, USA) containing serial dilutions of each antibacterial agent were poured on to the plates and allowed to solidify. Appropriate suspensions from the freshly grown cultures were prepared in normal saline so that about 10^4 CFU/spot of the organism was delivered on to the drug containing agar plates using automated multipoint inoculator (Mast, UK). The plates were incubated in Biochemical oxygen demand (BOD) incubator at 37° C. for 18 hours and then examined for growth.
(§2) The Table 2 depicts the antibacterial activity profile of compounds according to present invention against various multidrug resistant bacterial strains.

A further assay deals with E. coli M 49. It counts as cell-based. Particulars: Escherichia coli, M49, Mueller Hinton Agar. On the procedure: as §1, §2
The subject of the next assay is K. pneumoniae H 521. It counts as cell-based. Particulars: Klebsiella pneumoniae, H521, Mueller Hinton Agar. As for the experimental part: as §1, §2
The test system of the next assay is E. coli 13353. It counts as cell-based. Particulars: Escherichia coli, Mueller Hinton Agar. As for the experimental part: as §1, §2
The test system of another assay is E. coli 13352. It counts as cell-based. The settings on record: Escherichia coli, Mueller Hinton Agar. As for the experimental part: as §1, §2
The test system of a further assay is E. coli 7 MP. It is filed as cell-based. The settings on record: Escherichia coli, Mueller Hinton Agar. As for the experimental part:
as §1, §2

In another assay the test system is K. pneumoniae H 525. It counts as cell-based. The settings on record: Klebsiella pneumoniae, H525, Mueller Hinton Agar. On the procedure:
as §1, §2

The subject of a further assay is K. pneumoniae H 522. It is filed as cell-based. The settings on record: Klebsiella pneumoniae, H522, Mueller Hinton Agar. As for the experimental part:
as §1, §2

Another assay has as its system E. coli M 50. It counts as cell-based. The settings on record: Escherichia coli, M50, Mueller Hinton Agar. As for the experimental part: as §1, §2
The next assay deals with E. coli M 138. It is filed as cell-based. Particulars: Escherichia coli, M138, Mueller Hinton Agar. As for the experimental part: as §1, §2
A further assay has as its system E. coli M 36. It counts as cell-based. Particulars: Escherichia coli, M36, Mueller Hinton Agar. As for the experimental part: as §1, §2
A further assay has as its system K. pneumoniae H 523. It counts as cell-based. Particulars: Klebsiella pneumoniae, H523, Mueller Hinton Agar. On the procedure:
as §1, §2

The next assay deals with E. coli 13351. It is filed as cell-based. The settings on record: Escherichia coli, Mueller Hinton Agar. As for the experimental part:
as §1, §2

In the next assay the test system is E. coli S 18. It counts as cell-based. The settings on record: Escherichia coli, S18, Mueller Hinton Agar. As for the experimental part:
as §1, §2

The subject of a further assay is E. coli H 483. It is filed as cell-based. The settings on record: Escherichia coli, H483, Mueller Hinton Agar. As for the experimental part: as §1, §2

Values after ≈ are worked out from the molar mass of the structure shown.

Consider `O=C(NOC[C@@H]1CCCCCN1)[C@@H]1CC[C@@H]2CN1C(=O)N2OC(F)(F)C(=O)O` [Example 7], for which the MIC was over 32 µg/mL in the assay with KP ATCC 700603; 2 µg/mL (≈ 4.92 µM) with E. coli M 49; 2 µg/mL (≈ 4.92 µM) with K. pneumoniae H 521; 4 µg/mL (≈ 9.84 µM) in the assay on E. coli 13353; 2 µg/mL (≈ 4.92 µM) in the assay on E. coli 13352; 4 µg/mL (≈ 9.84 µM) against E. coli 7 MP. For the same compound, the MIC in the assay on K. pneumoniae H 525 was found to be 2 µg/mL (≈ 4.92 µM); against K. pneumoniae H 522, 2 µg/mL (≈ 4.92 µM); with E. coli M 50, 2 µg/mL (≈ 4.92 µM); in the assay with E. coli M 138, 4 µg/mL (≈ 9.84 µM); in the assay with E. coli M 36, 4 µg/mL (≈ 9.84 µM); against K. pneumoniae H 523, 2 µg/mL (≈ 4.92 µM). The MIC in the assay on E. coli 13351 came to 2 µg/mL (≈ 4.92 µM).

Consider `NCCONC(=O)[C@@H]1CC[C@@H]2CN1C(=O)N2OC(F)(F)C(=O)O` [Example 8], for which the MIC is over 32 µg/mL in the assay with KP ATCC 700603; 4 µg/mL (≈ 11.8 µM) against E. coli M 49; 4 µg/mL (≈ 11.8 µM) against K. pneumoniae H 521; 4 µg/mL (≈ 11.8 µM) against E. coli 13353; 4 µg/mL (≈ 11.8 µM) against E. coli 13352; 8 µg/mL (≈ 23.6 µM) with E. coli 7 MP. Also, the MIC in the assay with E. coli S 18 was 4 µg/mL (≈ 11.8 µM); against K. pneumoniae H 525 it was 4 µg/mL (≈ 11.8 µM); with K. pneumoniae H 522, 4 µg/mL (≈ 11.8 µM); against E. coli M 50, 4 µg/mL (≈ 11.8 µM); against E. coli M 138 it was 4 µg/mL (≈ 11.8 µM); in the assay on E. coli H 483, over 32 µg/mL. Also, the MIC was determined as 2 µg/mL (≈ 5.91 µM) in the assay with E. coli M 36, 4 µg/mL (≈ 11.8 µM) against K. pneumoniae H 523 and 4 µg/mL (≈ 11.8 µM) in the assay on E. coli 13351.

Regarding `O=C(NOC[C@@H]1CCCCN1)[C@@H]1CC[C@@H]2CN1C(=O)N2OC(F)(F)C(=O)O` [Example 5], the MIC is over 32 µg/mL in the assay on KP ATCC 700603; 8 µg/mL (≈ 20.4 µM) with E. coli M 49; 4 µg/mL (≈ 10.2 µM) with K. pneumoniae H 521; 4 µg/mL (≈ 10.2 µM) in the assay with E. coli 13353; 4 µg/mL (≈ 10.2 µM) with E. coli 13352; 8 µg/mL (≈ 20.4 µM) against E. coli 7 MP. For the same compound, the MIC in the assay on E. coli S 18, in the assay on K. pneumoniae H 525, in the assay with K. pneumoniae H 522, against E. coli M 50, against E. coli M 138 and in the assay on E. coli M 36 was 4 µg/mL (≈ 10.2 µM) in each case. The MIC against K. pneumoniae H 523 came to 4 µg/mL (≈ 10.2 µM); with E. coli 13351 it was 8 µg/mL (≈ 20.4 µM).

`O=C(NOC[C@H]1CCCCCN1)[C@@H]1CC[C@@H]2CN1C(=O)N2OC(F)(F)C(=O)O` [Example 6]: the MIC against KP ATCC 700603 is over 32 µg/mL; with E. coli M 49 it was 8 µg/mL (≈ 19.7 µM); in the assay with K. pneumoniae H 521, 2 µg/mL (≈ 4.92 µM); against E. coli 13353, 1 µg/mL (≈ 2.46 µM); in the assay with E. coli 13352 it was 2 µg/mL (≈ 4.92 µM); in the assay on E. coli 7 MP, 4 µg/mL (≈ 9.84 µM). The MIC in the assay with E. coli S 18 is 2 µg/mL (≈ 4.92 µM); in the assay with K. pneumoniae H 525, 1 µg/mL (≈ 2.46 µM); against K. pneumoniae H 522, 2 µg/mL (≈ 4.92 µM); in the assay with E. coli M 50, 2 µg/mL (≈ 4.92 µM); against E. coli M 138 it was 2 µg/mL (≈ 4.92 µM); against E. coli H 483 it was over 32 µg/mL. In addition, the minimum inhibitory concentration (MIC) was determined as 1 µg/mL (≈ 2.46 µM) with E. coli M 36, 2 µg/mL (≈ 4.92 µM) in the assay with K. pneumoniae H 523 and 2 µg/mL (≈ 4.92 µM) with E. coli 13351.

On to `O=C(NOC[C@H]1CCCCN1)[C@@H]1CC[C@@H]2CN1C(=O)N2OC(F)(F)C(=O)O` [Example 4], for which the MIC is over 32 µg/mL against KP ATCC 700603; 4 µg/mL (≈ 10.2 µM) in the assay with E. coli M 49; 2 µg/mL (≈ 5.1 µM) in the assay with K. pneumoniae H 521; 1 µg/mL (≈ 2.55 µM) in the assay on E. coli 13353; 1 µg/mL (≈ 2.55 µM) in the assay on E. coli 13352; 2 µg/mL (≈ 5.1 µM) in the assay on E. coli 7 MP. Further, the MIC was 2 µg/mL (≈ 5.1 µM) against E. coli S 18; 1 µg/mL (≈ 2.55 µM) with K. pneumoniae H 525; 1 µg/mL (≈ 2.55 µM) with K. pneumoniae H 522; 2 µg/mL (≈ 5.1 µM) against E. coli M 50; 2 µg/mL (≈ 5.1 µM) in the assay with E. coli M 138; over 32 µg/mL against E. coli H 483. The MIC against E. coli M 36 and in the assay with K. pneumoniae H 523 was 1 µg/mL (≈ 2.55 µM) throughout.

Regarding `O=C(NOC1CCNC1)[C@@H]1CC[C@@H]2CN1C(=O)N2OC(F)(F)C(=O)O` (some centres unmarked) [Example 3], the MIC is over 32 µg/mL with KP ATCC 700603; 8 µg/mL (≈ 22 µM) against E. coli M 49; 4 µg/mL (≈ 11 µM) in the assay with K. pneumoniae H 521; 4 µg/mL (≈ 11 µM) with E. coli 13353; 4 µg/mL (≈ 11 µM) with E. coli 13352; 8 µg/mL (≈ 22 µM) with E. coli 7 MP. Further, the MIC in the assay with E. coli S 18 was 16 µg/mL (≈ 43.9 µM); in the assay on K. pneumoniae H 525 it was 4 µg/mL (≈ 11 µM); against K. pneumoniae H 522, 4 µg/mL (≈ 11 µM); against E. coli M 50 it was 4 µg/mL (≈ 11 µM); in the assay with E. coli M 138, 4 µg/mL (≈ 11 µM); against E. coli H 483 it was over 32 µg/mL. Also, the MIC in the assay on E. coli M 36, with K. pneumoniae H 523 and in the assay on E. coli 13351 was 4 µg/mL (≈ 11 µM) throughout.

`O=C(NOC[C@H]1CCCN1)[C@@H]1CC[C@@H]2CN1C(=O)N2OC(F)(F)C(=O)O` [Example 2]: the MIC with KP ATCC 700603 is over 32 µg/mL; with E. coli M 49, 2 µg/mL (≈ 5.29 µM); in the assay with K. pneumoniae H 521, 1 µg/mL (≈ 2.64 µM); against E. coli 13353, 0.5 µg/mL (≈ 1.32 µM); against E. coli 13352 it was 1 µg/mL (≈ 2.64 µM); against E. coli 7 MP, 2 µg/mL (≈ 5.29 µM). Moreover, the MIC turned out to be 1 µg/mL (≈ 2.64 µM) in the assay with K. pneumoniae H 525; 1 µg/mL (≈ 2.64 µM) against K. pneumoniae H 522; 1 µg/mL (≈ 2.64 µM) against E. coli M 50; 1 µg/mL (≈ 2.64 µM) in the assay on E. coli M 138; 0.5 µg/mL (≈ 1.32 µM) against E. coli M 36; 1 µg/mL (≈ 2.64 µM) against K. pneumoniae H 523. The MIC in the assay on E. coli 13351 was 1 µg/mL (≈ 2.64 µM).

As for `O=C(NOC[C@@H]1CCCN1)[C@@H]1CC[C@@H]2CN1C(=O)N2OC(F)(F)C(=O)O` [Example 1], the MIC against KP ATCC 700603 is over 32 µg/mL; in the assay on E. coli M 49, 8 µg/mL (≈ 21.1 µM); against K. pneumoniae H 521 it was 4 µg/mL (≈ 10.6 µM); against E. coli 13353, 2 µg/mL (≈ 5.29 µM); against E. coli 13352, 2 µg/mL (≈ 5.29 µM); in the assay on E. coli 7 MP it was 4 µg/mL (≈ 10.6 µM). Further, the MIC against E. coli S 18, with K. pneumoniae H 525, against K. pneumoniae H 522, in the assay with E. coli M 50, in the assay on E. coli M 138 and with E. coli M 36 was 2 µg/mL (≈ 5.29 µM) each time. The minimal inhibitory concentration (MIC) against K. pneumoniae H 523 and with E. coli 13351 was 2 µg/mL (≈ 5.29 µM) each time.
